{"source": "patent US10383831B2", "about": "“2,4,6-trialkoxystryl aryl sulfones, sulfonamides and carboxamides, and methods of preparation and use” (Temple University—Of The Commonwealth System Of Higher …, priority 2015, dated 2019)", "format_in_all_cases": "cell-based", "key": {"[1]": {"test_system": "K562 (chronic myelogenous leukaemia)", "assay": "Cytotoxicity assay, K562 tumor cells", "conditions": "Homo sapiens, 96 hours treatment", "method": "(§1) The effect of the compounds of the invention on tumor cells was determined by the assay described by Latham et al., Oncogene 12:827-837 (1996). Tumor cells K562 (chronic myelogenous leukaemia) or DU145 (prostate cancer) were plated in 12-well dishes at a cell density of 2.5×10^4 cells well. The plated cells were treated 24 hours later with a compound of the invention dissolved in DMSO at multiple concentrations ranging from 0.001 to 10 μM. The plates were examined 96 hours later under an inverted microscope, Olympus CK-2 using a 10× objective, and compound activity was noted by physical observation. When necessary, the total number of viable cells was determined by trypsinizing the wells and counting the number of viable cells, as determined by trypan blue exclusion, using a hemacytometer."}, "DU145 (prostate cancer)": {"test_system": "DU145 (prostate cancer)", "assay": "Cytotoxicity assay, DU145 tumor cells", "conditions": "Homo sapiens, DU-145, 96 hours treatment", "method": "as §1"}, "DU145": {"test_system": "DU145", "assay": "Cytotoxicity assay (viable cell count, trypan blue), DU145", "conditions": "Homo sapiens, DU-145; DU145, Prostate; 96 hours continuous treatment", "method": "(§2) Cells of the cell lines listed in Table 18 (1×10^5) were plated into 6-well dishes. Twenty-four hours later, the compound of Example 1, i.e., (Z)-ethyl 3-((2-methoxy-5-(((E)-2,4,6-trimethoxystyrylsulfonyl)methyl) phenyl)amino)acrylate, or the compound of Comparative Example 1, i.e., sodium (E)-2-(5-((2,4,6-trimethoxystyrylsulfonyl)methyl)-2-methoxyphenylamino) acetate (rigosertib) was added at different concentrations over a 4 log dilution (0.001 to 10 μM). The total number of viable cells was determined after 96 hours of continuous treatment by staining with trypan blue and counting the number of non-staining cells (viable) remaining in each well using a hemacytometer. The percentage of viable cells remaining was calculated as follows: # viable cells (compound treated)/# viable cells (DMSO treated)*100. The GI50 (the concentration of drug resulting in 50% net loss of growth inhibition) was determined."}, "PC-3": {"test_system": "PC-3", "assay": "Cytotoxicity assay (viable cell count, trypan blue), PC-3", "conditions": "Homo sapiens; PC-3, Prostate; 96 hours continuous treatment", "method": "as §2"}, "N417": {"test_system": "N417", "assay": "Cytotoxicity assay (viable cell count, trypan blue), N417", "conditions": "N417, Small Cell Lung Carcinoma; 96 hours continuous treatment", "method": "as §2"}, "HT-29": {"test_system": "HT-29", "assay": "Cytotoxicity assay (viable cell count, trypan blue), HT-29", "conditions": "Homo sapiens; HT-29, Colo-Rectal; 96 hours continuous treatment", "method": "as §2"}, "HCT-116": {"test_system": "HCT-116", "assay": "Cytotoxicity assay (viable cell count, trypan blue), HCT-116", "conditions": "Homo sapiens; HCT-116, Colo-Rectal; 96 hours continuous treatment", "method": "as §2"}, "HCT-15": {"test_system": "HCT-15", "assay": "Cytotoxicity assay (viable cell count, trypan blue), HCT-15", "conditions": "Homo sapiens; HCT-15, Colo-Rectal; 96 hours continuous treatment", "method": "as §2"}, "H1299": {"test_system": "H1299", "assay": "Cytotoxicity assay (viable cell count, trypan blue), H1299", "conditions": "Homo sapiens, NCI-H1299; H1299, Non-Small Cell Lung Carcinoma; 96 hours continuous treatment", "method": "as §2"}, "A549": {"test_system": "A549", "assay": "Cytotoxicity assay (viable cell count, trypan blue), A549", "conditions": "Homo sapiens; A549, Non-Small Cell Lung Carcinoma; 96 hours continuous treatment", "method": "as §2"}, "T-24": {"test_system": "T-24", "assay": "Cytotoxicity assay (viable cell count, trypan blue), T-24", "conditions": "Homo sapiens; T-24, Bladder; 96 hours continuous treatment", "method": "as §2"}, "UM-UC-3": {"test_system": "UM-UC-3", "assay": "Cytotoxicity assay (viable cell count, trypan blue), UM-UC-3", "conditions": "Homo sapiens, UMUC3; UM-UC-3, Bladder; 96 hours continuous treatment", "method": "as §2"}, "5367": {"test_system": "5367", "assay": "Cytotoxicity assay (viable cell count, trypan blue), 5367", "conditions": "5367, Bladder; 96 hours continuous treatment", "method": "as §2"}, "2008": {"test_system": "2008", "assay": "Cytotoxicity assay (viable cell count, trypan blue), 2008", "conditions": "2008, Ovarian; 96 hours continuous treatment", "method": "as §2"}, "Caov-3": {"test_system": "Caov-3", "assay": "Cytotoxicity assay (viable cell count, trypan blue), Caov-3", "conditions": "Homo sapiens; Caov-3, Ovarian; 96 hours continuous treatment", "method": "as §2"}, "MDA-MB-231": {"test_system": "MDA-MB-231", "assay": "Cytotoxicity assay (viable cell count, trypan blue), MDA-MB-231", "conditions": "Homo sapiens; MDA-MB-231, Breast; 96 hours continuous treatment", "method": "as §2"}, "MIA-PaCa-2": {"test_system": "MIA-PaCa-2", "assay": "Cytotoxicity assay (viable cell count, trypan blue), MIA-PaCa-2", "conditions": "Homo sapiens; MIA-PaCa-2, Pancreatic; 96 hours continuous treatment", "method": "as §2"}, "WM1617": {"test_system": "WM1617", "assay": "Cytotoxicity assay (viable cell count, trypan blue), WM1617", "conditions": "WM1617, Melanoma; 96 hours continuous treatment", "method": "as §2"}, "K562": {"test_system": "K562", "assay": "Cytotoxicity assay (viable cell count, trypan blue), K562", "conditions": "Homo sapiens; K562, Chronic Myelogenous Leukemia; 96 hours continuous treatment", "method": "as §2"}, "RS4; 11": {"test_system": "RS4; 11", "assay": "Cytotoxicity assay (viable cell count, trypan blue), RS4; 11", "conditions": "Homo sapiens, 11, ALL-B-Cell Precursor, 96 hours continuous treatment", "method": "as §2"}, "DAUDI": {"test_system": "DAUDI", "assay": "Cytotoxicity assay (viable cell count, trypan blue), DAUDI", "conditions": "Homo sapiens, B-Cell Lymphoma, 96 hours continuous treatment", "method": "as §2"}, "CEM": {"test_system": "CEM", "assay": "Cytotoxicity assay (viable cell count, trypan blue), CEM", "conditions": "Homo sapiens, CCRF-CEM, T-Cell Lymphoma, 96 hours continuous treatment", "method": "as §2"}, "MOLT-4": {"test_system": "MOLT-4", "assay": "Cytotoxicity assay (viable cell count, trypan blue), MOLT-4", "conditions": "Homo sapiens; MOLT-4, T-Cell Lymphoma; 96 hours continuous treatment", "method": "as §2"}, "Z1385": {"test_system": "Z1385", "assay": "Cytotoxicity assay (viable cell count, trypan blue), Z1385", "conditions": "Z1385, Mantle Cell Lymphoma; 96 hours continuous treatment", "method": "as §2"}, "GRANTA-519": {"test_system": "GRANTA-519", "assay": "Cytotoxicity assay (viable cell count, trypan blue), GRANTA-519", "conditions": "Homo sapiens; GRANTA-519, Mantle Cell Lymphoma; 96 hours continuous treatment", "method": "as §2"}, "tumor cell lines": {"test_system": "tumor cell lines", "assay": "Cytotoxicity assay, comparison across the cell lines listed in Table 18", "conditions": "across the cell lines of Table 18; against some tumor types as much as 10-fold or even 100-fold", "method": "as §2"}}, "data": [{"molecule": "CCOC(=O)/C=C\\Nc1cc(CS(=O)(=O)/C=C/c2c(OC)cc(OC)cc2OC)ccc1OC", "note": "[Ex. 1, (Z)-ethyl 3-((2-methoxy-5-(((E)-2,4,6-trimethoxystyrylsulfonyl)methyl)phenyl)amino) acrylate]", "values": [{"measurement": "IC50", "setting": "[1]", "value": 0.002, "unit": "µM"}, {"measurement": "IC50", "setting": "DU145 (prostate cancer)", "value": 0.006, "unit": "µM"}, {"measurement": "GI50", "setting": "DU145", "value": 10, "unit": "nM"}, {"measurement": "GI50", "setting": "PC-3", "value": 7.5, "unit": "nM"}, {"measurement": "GI50", "setting": "N417", "value": 8, "unit": "nM"}, {"measurement": "GI50", "setting": "HT-29", "value": 15, "unit": "nM"}, {"measurement": "GI50", "setting": "HCT-116", "value": 7.5, "unit": "nM"}, {"measurement": "GI50", "setting": "HCT-15", "value": 7.5, "unit": "nM"}, {"measurement": "GI50", "setting": "H1299", "value": 4, "unit": "nM"}, {"measurement": "GI50", "setting": "A549", "value": 7.5, "unit": "nM"}, {"measurement": "GI50", "setting": "T-24", "value": 4, "unit": "nM"}, {"measurement": "GI50", "setting": "UM-UC-3", "value": 3, "unit": "nM"}, {"measurement": "GI50", "setting": "5367", "value": 3, "unit": "nM"}, {"measurement": "GI50", "setting": "2008", "value": 6, "unit": "nM"}, {"measurement": "GI50", "setting": "Caov-3", "value": 4, "unit": "nM"}, {"measurement": "GI50", "setting": "MDA-MB-231", "value": 7.5, "unit": "nM"}, {"measurement": "GI50", "setting": "MIA-PaCa-2", "value": 5, "unit": "nM"}, {"measurement": "GI50", "setting": "WM1617", "value": 3, "unit": "nM"}, {"measurement": "GI50", "setting": "K562", "value": 3, "unit": "nM"}, {"measurement": "GI50", "setting": "RS4; 11", "value": 7.5, "unit": "nM"}, {"measurement": "GI50", "setting": "DAUDI", "value": 7.5, "unit": "nM"}, {"measurement": "GI50", "setting": "CEM", "value": 7.5, "unit": "nM"}, {"measurement": "GI50", "setting": "MOLT-4", "value": 7.5, "unit": "nM"}, {"measurement": "GI50", "setting": "Z1385", "value": 6, "unit": "nM"}, {"measurement": "GI50", "setting": "GRANTA-519", "value": 6, "unit": "nM"}, {"measurement": "fold more active than the Comparative Example 1 compound", "setting": "tumor cell lines", "value": "at least 4 fold"}]}]}
